Assay [1] addresses T1, hCRTH2 receptor (Homo sapiens, UniProt Q9Y5Y4).
T1 construct: expressed in transfected cells; host or cells: HEK293 (recombinant HEK293-hCRTH2), membrane fragments
T1 sequence (Q9Y5Y4 1-395): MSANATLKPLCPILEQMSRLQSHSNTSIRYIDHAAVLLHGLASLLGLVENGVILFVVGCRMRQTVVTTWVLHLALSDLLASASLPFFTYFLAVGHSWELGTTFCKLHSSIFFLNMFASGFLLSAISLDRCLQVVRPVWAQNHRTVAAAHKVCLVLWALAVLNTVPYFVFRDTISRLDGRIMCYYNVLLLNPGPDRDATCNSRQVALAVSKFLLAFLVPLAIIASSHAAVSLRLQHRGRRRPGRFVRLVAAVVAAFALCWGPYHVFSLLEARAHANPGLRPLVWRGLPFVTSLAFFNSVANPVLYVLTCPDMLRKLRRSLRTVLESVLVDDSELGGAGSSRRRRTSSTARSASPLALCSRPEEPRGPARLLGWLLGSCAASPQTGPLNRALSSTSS
Nature of the assay: Radioligand displacement assay in presence of human serum albumin (HSA). The note with it: displacement of 3H-PGD2, Binding-Buffer with 0.5% human serum albumin instead of 0.1% BSA. How it is done: (§1) First, recombinant HEK293-hCRTH2 cells were detached from culture plates into 5 ml buffer A/plate (Buffer A: 5 mM Tris, 1 mM MgCl2-6H2O pH=7.4) using a rubber policeman. Cells were then transferred into centrifugation tubes and centrifuged for 5 min at 400 g. The cell pellet was resuspended in the same buffer and tubes were frozen at 80° C. Cells were thawed and membrane fragments were generated by homogenization using a polytron homogenizer (30 seconds). The membrane fragments were then centrifuged at 3000 g for 20 minutes and resuspended in buffer C (Buffer C: 75 mM Tris, 25 mM MgCl2, 250 mM Saccharose pH 7.4). Aliquots of membrane fragments were stored at −20° C.
(§2) Binding assay was performed in a final assay volume of 250 μl. First, 25 μl of test compound, previously diluted in Binding-Buffer (Binding-Buffer: 50 mM Tris-Base, 100 mM NaCl, 1 mM EDTA, 0.1% BSA (protease free), 0.01% NaN3, 10 mM MnCl2 pH 7.0) was placed into each well. After addition of 75 μl Binding-Buffer, 50 μl of the radioligand ^3H-PGD2 (at 2.5 nM (220.000 dpm/well) from ANAWA ART0662) was added to each well. Binding assay was started by addition of 100 μl CRTH2 membrane fragments, reaching a final concentration of 20 μg/well. For non-specific binding, PGD2 was added to the reaction mixture to […] final concentration. This assay mix was incubated for 90 minutes at room temperature and then filtered through a GF/C filter 96-well plate which was pre-soaked for 3 hours in 0.5% polyethyleneimine (PEI). The filter-wells were washed three times with ice cold Binding-Buffer. Then, 40 μl of Microscint-40 (Packard) was added to each well and the retained radioactivity quantified in a Topcount (Packard).
Radioligand Displacement Assay-Human Serum Albumin (HSA):
Radioligand displacement assay in presence of human serum albumin (HSA) was performed as described above, with following modifications. Binding-Buffer-HSA: Binding-buffer+0.5% Sigma Albumin from Human serum A1887 (instead of 0.1% BSA). A volume of 25 μl test compound, previously diluted in Binding-Buffer-HSA was placed into each well. After addition of 75 μl Binding-Buffer-HSA, 50 μl of ^3H-PGD2 (at 2.5 nM (220.000 dpm/well) from ANAWA ART0662) was added to each well. Remaining protocol was identical as described above.

The test system of assay [2] is eosinophils (PGD2-induced shape change). Nature of the assay: Eosinophil shape change assay with human plasma. The conditions noted are these: human polymorphonuclear cells, 50% human plasma, activated with PGD2 100 nM, flow cytometry forward-scatter. In kind it is cell-based. The protocol:
Eosinophil Shape Change Assay with Human Plasma
After obtaining informed consent, blood samples were drawn by venipuncture according to the protocol approved by the ethics committee of Basel, Switzerland. Polymorphonuclear leukocytes (containing eosinophils, basophils and neutrophils) were isolated using the Polymorphprep™ method (Axis-Shield). In brief, anticoagulated whole blood was layered onto a Polymorphprep gradient (density 1.113 g/ml) and centrifuged at 500 g for 30 min. The polymorphonuclear cell fraction was harvested and depleted for erythrocytes by hypotonic saline lysis.
The polymorphonuclear cells were resuspended in assay buffer (1×PBS with Ca^2+/Mg^2+ supplemented with 0.1% BSA, 10 mM HEPES, and 10 mM Glucose, pH 7.4) at 5×10^6 cells/ml and stained with anti-CD49d-APC ((APC=Allophycocyanin) for 1 hour at RT. Test compounds, at various concentrations, were preincubated 10 min in human plasma (anticoagulated with a thrombin inhibitor). Then, human plasma was added to the polymorphonuclear cells to 50% of final assay volume with polymorphonuclear cells at 4×10^6 cells/ml. After incubation for 10 minutes at 37° C., the polymorphonuclear cells were activated for 5 min at 37° C. by addition of PGD2 at 100 nM final concentration. Activation was stopped by addition of 0.5 ml paraformaldehyde (1%).
Immediately after fixation with paraformaldehyde, the samples were analyzed by FACSCanto flow cytometer (BD Biosciences) and target cells were identified by their forward-scatter (FSC) and side-scatter (SSC) characteristics. Eosinophils were identified by the anti-CD49d-APC signal and their characteristic side-scatter (SSC) profile. Shape change responses, indicative of eosinophil activation, were quantified as the percent of cells with an increased forward-scatter.

Assay [3] has as its target T1, hCRTH2 receptor. Nature of the assay: hCRTH2 receptor membranes radioligand displacement assay. The note with it: displacement of 3H-PGD2 (2.5 nM), HEK293-hCRTH2 membrane fragments, Binding-Buffer with 0.1% BSA. How it is done:
Preparation of hCRTH2 Receptor Membranes and Radioligand Displacement Assay:
as §1, §2

`CN(c1ncc(Cl)cn1)[C@H]1CCc2c(c3nc(F)ccc3n2CC(=O)O)C1` [Example 7, (S)-2-(8-((5-chloropyrimidin-2-yl)(methyl)amino)-2-fluoro-6,7,8,9-tetrahydro-5H-pyrido[3,2-b]indol-5-yl)acetic acid]: the IC50 at hCRTH2 receptor [1] stood at 5 nM; in assay [2], 3.1 nM; at hCRTH2 receptor [3], 5.6 nM.
Regarding `O=C(O)Cn1c2c(c3nc(F)ccc31)C[C@@H](Nc1ncc(Cl)cn1)CC2` [Example 8, (S)-2-(8-((5-chloropyrimidin-2-yl)amino)-2-fluoro-6,7,8,9-tetrahydro-5H-pyrido[3,2-b]indol-5-yl)acetic acid], the IC50 is 22 nM at hCRTH2 receptor [1], 32 nM in assay [2] and 19 nM on hCRTH2 receptor [3].

Source of the values: patent US9879006B2, “Azaindole acetic acid derivatives and their use as prostaglandin D2 receptor modulators” (IDORSIA PHARMACEUTICALS LTD, priority 2014, dated 2018).
